# Experiments:
# MV-4-11 cells = test: CCK-8 cell viability assay in MV-4-11 cells; format: cell-based; details: 10% FBS, 3 days
# Procedure, shortened: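 IC50 values come from vehicle-normalized CCK-8 absorbance at 450 nm, read 1–4 h after reagent addition. Before that, MV-4-11 cells seeded at 20000 per well were cultured 3 days at 37 °C with a compound dilution series.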
# RS4; 11Bcl-2-G101V cells = test: CellTiter-Glo (CTG) cell viability assay in RS4;11-Bcl-2-G101V cells; format: cell-based; details: 10% FBS, 3 days
# Procedure, shortened: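 Luminescent ATP read-out (CellTiter-Glo) after 3-day compound treatment at 37 °C gave viability relative to vehicle, from which IC50 was fitted. Mutant Bcl-2 RS4;11 cells were seeded at 10000 per well and rested 4 h before dosing.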
# RS4; 11Bcl-2-V156D cells = test: CellTiter-Glo (CTG) cell viability assay in RS4;11-BCL2-V156D cells; format: cell-based; details: 10% FBS, 3 days
# Procedure: (§1) RS4; 11Bcl-2-G101V, RS4; 11Bcl-2-D103E, RS4; 11Bcl-2-V156D and RS4; 11Bcl-2-G101V-D103E cells were obtained from Cobioer Biosciences. Cells were maintained in the RPMI-1640 medium with 10% FBS, 1% P/S and puromycin (1 μg/mL) at 37° C. and an atmosphere of 5% CO2.
# (§2) • The effect of representative Compounds of the Disclosure on cell viability was determined using CellTiter-Glo® (CTG) luminescent cell viability assay (Promega, USA) according to the manufacturer's instructions. 95 μL of cell suspension (10000 cells/well) in culture medium were seeded into 96-well plates and cultured 4 hours. Each tested compound was serially diluted in blank culture medium, and 5 μL of the compound dilution was added to the corresponding well of the cell plate. After the addition of the tested compound, the cells were incubated at 37° C. in an atmosphere of 5% CO2 for 3 days. At the end of 3 days, 30 μL of CTG solution was added to each well of the plate and mix contents for 2 minutes on an orbital shaker. Allow the plate to incubate at room temperature for 15 mins to stabilize signal and record RLU on the Biotek plate reader. The readings were normalized to the vehicle cells, and the IC50 was calculated using GraphPad Prism 8 software.
# RS4; 11Bcl-2-D103E cells = test: CellTiter-Glo (CTG) cell viability assay in RS4;11-BCL2-D103E cells; format: cell-based; details: 10% FBS, 3 days
# Procedure: as §1, §2
# Bcl-2 WT = Bcl-2 WT (Homo sapiens, UniProt P10415); test: Bcl-2 WT inhibition, fluorescence polarization (Flu-BIM tracer) binding assay; details: FP; 20 nM Bcl2, 5 nM Flu-BIM, 1 h incubation; read-out: Bcl-2 w.t. (FP)
# Sequence of Bcl-2 WT (P10415 whole entry): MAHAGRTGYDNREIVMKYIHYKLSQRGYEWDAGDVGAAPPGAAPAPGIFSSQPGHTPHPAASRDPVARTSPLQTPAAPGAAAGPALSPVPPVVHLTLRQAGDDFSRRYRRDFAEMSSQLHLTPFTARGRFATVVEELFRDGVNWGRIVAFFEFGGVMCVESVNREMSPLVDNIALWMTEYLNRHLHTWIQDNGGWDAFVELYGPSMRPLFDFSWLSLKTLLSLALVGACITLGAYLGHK
Compound,"IC50 (MV-4-11 cells; Homo sapiens, MV4-11, 72 h)",IC50 (RS4; 11Bcl-2-G101V cells; 72 h),IC50 (RS4; 11Bcl-2-V156D cells; 72 h),IC50 (RS4; 11Bcl-2-D103E cells; 72 h),IC50 (MV-4-11 cells),IC50 (RS4; 11Bcl-2-G101V cells),IC50 (RS4; 11Bcl-2-V156D cells),IC50 (RS4; 11Bcl-2-D103E cells),IC50 (Bcl-2 WT)
"CC1(C)CCC(CN2CCN(c3ccc(C(=O)NS(=O)(=O)c4ccc(NCC5CCOCC5)c([N+](=O)[O-])c4)c(Oc4cnc5[nH]ccc5c4)c3)CC2)=C(c2ccc(Cl)cc2)C1 [ABT-199, Venetoclax, reference compound]",38 nM,2690 nM,671 nM,1510 nM,–,–,–,–,–
O=C(NS(=O)(=O)c1ccc(NC[C@H]2COCCO2)c([N+](=O)[O-])c1)c1ccc(N2CCN(CC3=C(c4ccc(Cl)cc4)CC4(CCC4)CC3)CC2)cc1Oc1cnc2[nH]ccc2c1 [APG-2575],–,–,–,–,34 nM,2430 nM,324 nM,516 nM,–
"CC1(C)CCC(CN2CCN(c3ccc(C(=O)NS(=O)(=O)c4ccc(NC[C@H]5CC[C@](C)(O)CC5)c([N+](=O)[O-])c4)c(Oc4cnc5[nH]ccc5c4)c3)CC2)=C(c2cc(-c3c(F)cc(C(C)(C)O)cc3F)cs2)C1 [Example 63, 2-((1H-pyrrolo[2,3-b]pyridin-5-yl)oxy)-4-(4-((2-(4-(2,6-difluoro-4-(2-hydroxypropan-2-yl)phenyl)thiophen-2-yl)-4,4-dimethylcyclohex-1-en-1-yl)methyl)piperazin-1-yl)-N-((4-((((1r,4r)-4-hydroxy-4-methylcyclohexyl)methyl)amino)-3-nitrophenyl)sulfonyl)benzamide]",9 nM,14 nM,19 nM,183 nM,–,–,–,–,16.3 nM
"Cc1sc(C2=C(CN3CCN(c4ccc(C(=O)NS(=O)(=O)c5ccc(NC[C@H]6CC[C@](C)(O)CC6)c([N+](=O)[O-])c5)c(Oc5cnc6[nH]ccc6c5)c4)CC3)CCC(C)(C)C2)cc1-c1c(F)cc(C(C)(C)O)cc1F [Example 81, 2-((1H-pyrrolo[2,3-b]pyridin-5-yl)oxy)-4-(4-((2-(4-(2,6-difluoro-4-(2-hydroxypropan-2-yl)phenyl)-5-methylthiophen-2-yl)-4,4-dimethylcyclohex-1-en-1-yl)methyl)piperazin-1-yl)-N-((4-((((1r,4r)-4-hydroxy-4-methylcyclohexyl)methyl)amino)-3-nitrophenyl)sulfonyl)benzamide]",270 nM,1710 nM,–,–,–,–,–,–,34.6 nM
"CC1(C)CCC(CN2CCN(c3ccc(C(=O)NS(=O)(=O)c4ccc(NC[C@H]5CC[C@](C)(O)CC5)c([N+](=O)[O-])c4)c(Oc4cnc5[nH]ccc5c4)c3)CC2)=C(c2cc(-c3c(F)cc(C(C)(C)C(=O)O)cc3F)cs2)C1 [Example 82, 2-(4-(5-(2-((4-(3-((1H-pyrrolo[2,3-b]pyridin-5-yl)oxy)-4-(((4-((((1r,4r)-4-hydroxy-4-methylcyclohexyl)methyl)amino)-3-nitrophenyl)sulfonyl)carbamoyl)phenyl)piperazin-1-yl)methyl)-5,5-dimethylcyclohex-1-en-1-yl)thiophen-3-yl)-3,5-difluorophenyl)-2-methylpropanoic acid]",114 nM,1270 nM,–,–,–,–,–,–,18.1 nM
"C[C@@H](O)c1cc(F)c(-c2csc(C3=C(CN4CCN(c5ccc(C(=O)NS(=O)(=O)c6ccc(NC[C@H]7CC[C@](C)(O)CC7)c([N+](=O)[O-])c6)c(Oc6cnc7[nH]ccc7c6)c5)CC4)CCC(C)(C)C3)c2)c(F)c1 [Example 83, 2-((1H-pyrrolo[2,3-b]pyridin-5-yl)oxy)-4-(4-((2-(4-(2,6-difluoro-4-((R)-1-hydroxyethyl)phenyl)thiophen-2-yl)-4,4-dimethylcyclohex-1-en-1-yl)methyl)piperazin-1-yl)-N-((4-((((1r,4r)-4-hydroxy-4-methylcyclohexyl)methyl)amino)-3-nitrophenyl)sulfonyl)benzamide]",2 nM,20 nM,8 nM,48 nM,–,–,–,–,–
"C[C@H](O)c1cc(F)c(-c2csc(C3=C(CN4CCN(c5ccc(C(=O)NS(=O)(=O)c6ccc(NC[C@H]7CC[C@](C)(O)CC7)c([N+](=O)[O-])c6)c(Oc6cnc7[nH]ccc7c6)c5)CC4)CCC(C)(C)C3)c2)c(F)c1 [Example 84, 2-((1H-pyrrolo[2,3-b]pyridin-5-yl)oxy)-4-(4-((2-(4-(2,6-difluoro-4-((S)-1-hydroxyethyl)phenyl)thiophen-2-yl)-4,4-dimethylcyclohex-1-en-1-yl)methyl)piperazin-1-yl)-N-((4-((((1r,4r)-4-hydroxy-4-methylcyclohexyl)methyl)amino)-3-nitrophenyl)sulfonyl)benzamide]",7 nM,70 nM,8 nM,98 nM,–,–,–,–,–
